Drawing on the NIST ThermoML archive (doi:10.1016/j.fluid.2010.05.010), this text covers activity coefficient for 4 compounds.

This data set in a line: activity coefficient (dimensionless); of the first substance listed, at infinite dilution; xn = mol fraction of the nth substance listed. Conditions: 101 kPa, Liquid, x1 = 0.

± gives the expanded uncertainty stated by the source.

`CCOC(=O)OCC` [diethyl carbonate] + O: the activity coefficient is, setting by setting: (273.35 K, Inert gas stripping) 246 ± 1; (283.15 K, Inert gas stripping) 299 ± 1; (293.15 K, Inert gas stripping) 353 ± 1; (298.15 K, Inert gas stripping) 374 ± 1; (303.15 K, Inert gas stripping) 394 ± 1; (313.15 K, Inert gas stripping) 408 ± 1. The activity coefficient is 394 ± 1 (323.15 K, Inert gas stripping) and 388 ± 1 (333.15 K, Inert gas stripping).
In the case of `C=COC(C)=O` [vinyl acetate] + O, the activity coefficient came out at 150 ± 1 (273.35 K, Inert gas stripping); 161 ± 1 (283.15 K, Inert gas stripping); 177 ± 1 (293.15 K, Inert gas stripping); 181 ± 1 (298.15 K, Inert gas stripping); 187 ± 1 (303.15 K, Inert gas stripping); 190 ± 1 (313.15 K, Inert gas stripping). In addition, the activity coefficient is, setting by setting: (323.15 K, Inert gas stripping) 194 ± 1; (333.15 K, Inert gas stripping) 187 ± 1.
For the compound `COC(=O)OC` [dimethyl carbonate] + O, the activity coefficient reads like this: (273.35 K, Inert gas stripping) 37.6 ± 0.2; (283.15 K, Inert gas stripping) 43.8 ± 0.1; (293.15 K, Inert gas stripping) 46.3 ± 0.1; (298.15 K, Inert gas stripping) 48 ± 0.1; (303.15 K, Inert gas stripping) 49.3 ± 0.1; (313.15 K, Inert gas stripping) 50 ± 0.1. In addition, the activity coefficient worked out at 50.9 ± 0.1 (323.15 K, Inert gas stripping) and 50.3 ± 0.1 (333.15 K, Inert gas stripping).
Take `C=C(C)C(=O)OC` [methyl methacrylate] + O: the activity coefficient (273.35 K, Inert gas stripping) stood at 283 ± 1; the activity coefficient (283.15 K, Inert gas stripping) came to 321 ± 1; the activity coefficient (293.15 K, Headspace solid-phase microextraction) was found to be 380 ± 1; the activity coefficient (293.15 K, Inert gas stripping) was found to be 366 ± 1; the activity coefficient (298.15 K, Headspace solid-phase microextraction) came to 389 ± 1; the activity coefficient (298.15 K, Inert gas stripping) was 380 ± 1. The activity coefficient is, setting by setting: (303.15 K, Headspace solid-phase microextraction) 382 ± 1; (303.15 K, Inert gas stripping) 390 ± 1; (313.15 K, Inert gas stripping) 403 ± 1; (323.15 K, Inert gas stripping) 403 ± 1; (333.15 K, Inert gas stripping) 394 ± 1.
